According to patent publication US12227509B2, “Dihydropyrazolopyrazinone derivative having MGAT2 inhibitory activity” (Shionogi & Co., Ltd., priority 2019, dated 2025):
pIC50: −log10 of the molar value. ≈ marks a conversion by molar mass, not a printed value.

Key:
recombinant human MGAT2 = recombinant human MGAT2 (Homo sapiens (Human), UniProt Q3SYC2); test: Measurement of human MGAT2 inhibitory activity; format: biochemical; details: concentration exhibiting 50% enzyme inhibition; recombinant human MGAT2, 2-Oleoylglycerol/Oleoyl-CoA
Summary of the method: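 Membrane fraction of baculovirus-infected Sf-9 cells expressing N-terminally Flag-tagged full-length human MGAT2, in 100 mmol/L phosphate pH 7.4 with 2 mmol/L DTT. The substrate solution held 30 μmol/L 2-oleoylglycerol and 10 μmol/L oleoyl-CoA. After 1 h at room temperature, diolein/diolein-d5 ratio was read by ESI Q-TOF MS and % inhibition derived against enzyme and no-enzyme controls.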

Powder solubility test = format: physicochemical; details: pH 6.8, aqueous buffer, thermodynamic from solid, JP-2 solution, 37° C.
Procedure: Appropriate quantity of the compound of the present invention was put in suitable containers. 200 μL of JP-1 solution (water was added to 2.0 g of sodium chloride and 7.0 mL of hydrochloric acid to reach 1000 mL), 200 μL of JP-2 solution (500 mL of water was added to 500 mL of phosphate buffer (pH 6.8)) or 20 mmol/L sodium taurocholate (TCA)/JP-2 solution (JP-2 solution was added to 1.08 g of TCA to reach 100 mL) was independently added to each container. When total amount was dissolved after adding the test reagent, the compound of the present invention was added appropriately. After sealing and shaking at 37° C. for 1 hour, solution was filtrated and 100 μL of methanol was added to 100 μL of each filtrate to dilute two-fold. The dilution ratio and the dilution solvent were changed as necessary. After checking that there was no bubble and deposit, the container was sealed and shaken. The compound of the present invention was measured using HPLC by absolute calibration curve method.

Sequence of recombinant human MGAT2 (Q3SYC2 whole entry): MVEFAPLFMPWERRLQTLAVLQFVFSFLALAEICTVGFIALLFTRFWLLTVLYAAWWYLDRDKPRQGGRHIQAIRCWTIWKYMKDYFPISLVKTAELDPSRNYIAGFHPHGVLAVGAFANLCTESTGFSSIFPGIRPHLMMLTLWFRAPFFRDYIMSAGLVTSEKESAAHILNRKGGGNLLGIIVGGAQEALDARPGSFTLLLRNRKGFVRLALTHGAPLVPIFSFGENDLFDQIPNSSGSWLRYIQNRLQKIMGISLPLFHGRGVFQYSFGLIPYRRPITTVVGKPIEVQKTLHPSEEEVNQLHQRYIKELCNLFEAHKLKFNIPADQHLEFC

pIC50 (recombinant human MGAT2)	solubility at 1 h (Powder solubility test) [µM]	Structure (SMILES)
7.34	–	N#Cc1ccc(-c2nn3c(c2NC(=O)CC(F)(F)F)C(=O)N[C@@]2(CCc4cc(OCC(F)(F)F)ccc42)C3)nc1 [Compound I-14]
–	8.64 (≈ 4.67 µg/mL)	CS(=O)(=O)CC(=O)Nc1c(CCC2CC2)nn2c1C(=O)N[C@@]1(CCc3cc(OCC(F)(F)F)ccc31)C2 [Compound I-46]
